Test results published in patent publication US6063778A, “Cephalosporin derivatives and processes for the preparation thereof” (Il-Dong Pharm. Co., Ltd., priority 1995, dated 2000).
≈ marks a conversion by molar mass, not a printed value. Read-outs that look alike come from different tables or passages of the source.

Tests used:
[1] = tested on: Pseudomonas aeruginosa 1771; test: MIC by agar dilution, in vitro activity test; type: cell-based; settings: 37° C., 18 to 20 hours, read-out: Minimal Inhibitory Concentration (MIC)
Description: These MIC values were determined by agar dilution method: that is, two-fold dilutions of each of the test compounds were made and dispersed in a Mueller-Hinton Broth medium.

[2] = tested on: Staphylococcus aureus 503; test: MIC by agar dilution, in vitro activity test; type: cell-based; settings: 37° C., 18 to 20 hours, read-out: Minimal Inhibitory Concentration (MIC)
Description: (§1) These MIC values were determined by agar dilution method: that is, two-fold dilutions of each of the test compounds were made and dispersed in a Mueller-Hinton Broth medium. Standard test strain which had the 10^6 CFU per ml was inoculated on the medium, and was incubated at 37° C. for 18 to 20 hours.

Escherichia coli DC 0 = test: MIC by agar dilution, in vitro activity test; type: cell-based; settings: DC0, 37° C., 18 to 20 hours, read-out: Minimal Inhibitory Concentration (MIC)
Description: as §1

[3] = tested on: Staphylococcus aureus SG511; test: MIC by agar dilution, in vitro activity test; type: cell-based; settings: 37° C., 18 to 20 hours, read-out: Minimal Inhibitory Concentration (MIC)
Description: as §1

[4] = tested on: Streptococcus pyogenes 77A; test: MIC by agar dilution, in vitro activity test; type: cell-based; settings: 37° C., 18 to 20 hours, read-out: Minimal Inhibitory Concentration (MIC)
Description: as §1

[5] = tested on: Pseudomonas aeruginosa 1592E; test: MIC by agar dilution, in vitro activity test; type: cell-based; settings: 37° C., 18 to 20 hours, read-out: Minimal Inhibitory Concentration (MIC)
Description: as §1

Escherichia coli 078 = test: MIC by agar dilution, in vitro activity test; type: cell-based; settings: 37° C., 18 to 20 hours, read-out: Minimal Inhibitory Concentration (MIC)
Description: as §1

[6] = tested on: Streptococcus pyogenes 71A; test: MIC by agar dilution, in vitro activity test; type: cell-based; settings: 37° C., 18 to 20 hours, read-out: Minimal Inhibitory Concentration (MIC)
Description: as §1

[7] = tested on: Pseudomonas aeruginosa 9071; test: MIC by agar dilution, in vitro activity test; type: cell-based; settings: 37° C., 18 to 20 hours, read-out: Minimal Inhibitory Concentration (MIC)
Description: as §1

[8] = tested on: Staphylococcus aureus 285; test: MIC by agar dilution, in vitro activity test; type: cell-based; settings: 37° C., 18 to 20 hours, read-out: Minimal Inhibitory Concentration (MIC)
Description: as §1

Escherichia coli DC 2 = test: MIC by agar dilution, in vitro activity test; type: cell-based; settings: DC2, 37° C., 18 to 20 hours, read-out: Minimal Inhibitory Concentration (MIC)
Description: as §1

[9] = tested on: Pseudomonas aeruginosa 1771M; test: MIC by agar dilution, in vitro activity test; type: cell-based; settings: 20 h, read-out: Minimal Inhibitory Concentration (MIC)
Description: as §1

[10] = tested on: Streptococcus faecium MD 8b; test: MIC by agar dilution, in vitro activity test; type: cell-based; settings: Enterococcus faecium, MD8B, read-out: Minimal Inhibitory Concentration (MIC)
Description: as §1

Enterobacter cloace P99 = test: MIC by agar dilution, in vitro activity test; type: cell-based; settings: P99, 20 h, read-out: Minimal Inhibitory Concentration (MIC)
Description: as §1

[11] = tested on: Pseudomonas aeruginosa 9027; test: MIC by agar dilution, in vitro activity test; type: cell-based; settings: 37° C., 18 to 20 hours, read-out: Minimal Inhibitory Concentration (MIC)
Description: as §1

Salmonella typhimurium = test: MIC by agar dilution, in vitro activity test; type: cell-based; settings: Salmonella enterica, 37° C., 18 to 20 hours, read-out: Minimal Inhibitory Concentration (MIC)
Description: as §1

[12] = tested on: Klebsiella aerogenes 1082E; test: MIC by agar dilution, in vitro activity test; type: cell-based; settings: 37° C., 18 to 20 hours, read-out: Minimal Inhibitory Concentration (MIC)
Description: as §1

Escherichia coli TEM = test: MIC by agar dilution, in vitro activity test; type: cell-based; settings: 20 h, read-out: Minimal Inhibitory Concentration (MIC)
Description: as §1

Escherichia coli 1507E = test: MIC by agar dilution, in vitro activity test; type: cell-based; settings: Escherichia coli 1507E; agar dilution, 37° C., 18 to 20 hours; read-out: Minimal Inhibitory Concentration (MIC)
Description: as §1

[13] = tested on: Enterobacter cloace 1321E; test: MIC by agar dilution, in vitro activity test; type: cell-based; settings: 37° C., 18 to 20 hours, read-out: Minimal Inhibitory Concentration (MIC)
Description: as §1

[14] = tested on: Klebsiella aerogenes 1522E; test: MIC by agar dilution, in vitro activity test; type: cell-based; settings: Klebsiella aerogenes 1522E; agar dilution, 37° C., 18 to 20 hours; read-out: Minimal Inhibitory Concentration (MIC)
Description: as §1

[15] = tested on: Staphylococcus aureus, Escherichia coli and Pseudomonas aeruginosa; test: MIC by agar dilution, comparison in words; type: cell-based; settings: against Staphylococcus aureus, vs Cefotaxime
Description: as §1

Acute toxicity study = type: in vivo; settings: mouse, in vivo
Description: In order to illustrate usefulness of the compounds of the present invention, acute toxicity test of the compounds synthesized in the above Examples were carried out. Each dose of the compounds dissolved in saline and buffer solution (PH=7.0) was administered by intravenous or subcutaneous injection. Mortalities of the animals was recorded seven days latter.
.asterisk-pseud. Mouse: Male ICR strain, 4 weeks

[16] = iv, i.v, male ICR mouse, 4 weeks, mortality at seven days, read-out: LD50 i.v
[17] = iv, intravenous routes, read-out: acute toxicity in intravenous routes
[18] = sc, s.c, male ICR mouse, 4 weeks, mortality at seven days, read-out: LD50 s.c

Row | Compound | MIC [1] [µg/mL] | MIC [2] [µg/mL] | MIC (Escherichia coli DC 0) [µg/mL] | MIC [3] [µg/mL] | MIC [4] [µg/mL] | MIC [5] [µg/mL] | MIC (Escherichia coli 078) [µg/mL] | MIC [6] [µg/mL] | MIC [7] [µg/mL] | MIC [8] [µg/mL] | MIC (Escherichia coli DC 2) [µg/mL] | MIC [9] [µg/mL] | MIC (Enterobacter cloace P99) [µg/mL] | MIC [11] [µg/mL] | MIC (Salmonella typhimurium) [µg/mL] | MIC [12] [µg/mL] | MIC (Escherichia coli TEM) [µg/mL] | MIC (Escherichia coli 1507E) [µg/mL] | MIC [13] [µg/mL] | MIC [14] [µg/mL] | other results
1 | CO/N=C(\C(=O)N[C@@H]1C(=O)N2C(C(=O)[O-])=C(C[n+]3cccc4c3CCC4)CS[C@H]12)c1csc(N)n1 [CPR, Cefpirome, reference compound] | 3.1 (≈ 6.02 µM) | 0.8 (≈ 1.55 µM) | 0.012 (≈ 0.0233 µM) | 0.8 (≈ 1.55 µM) | 0.012 (≈ 0.0233 µM) | 3.1 (≈ 6.02 µM) | 0.025 (≈ 0.0486 µM) | 0.012 (≈ 0.0233 µM) | 6.3 (≈ 12.2 µM) | 0.4 (≈ 0.777 µM) | 0.1 (≈ 0.194 µM) | 0.8 (≈ 1.55 µM) | 3.1 (≈ 6.02 µM) | 6.3 (≈ 12.2 µM) | 0.1 (≈ 0.194 µM) | 6.3 (≈ 12.2 µM) | 0.05 (≈ 0.0972 µM) | 0.025 (≈ 0.0486 µM) | 0.025 (≈ 0.0486 µM) | 0.1 (≈ 0.194 µM) | MIC ([10]; 20 h): 100 µg/mL (≈ 194 µM)
2 | CO/N=C(\C(=O)N[C@@H]1C(=O)N2C(C(=O)O)=C(COC(C)=O)CS[C@H]12)c1csc(N)n1 [CTX, Cefotaxime, reference compound] | – | 3.1 (≈ 6.81 µM) | 0.012 (≈ 0.0263 µM) | 1.6 (≈ 3.51 µM) | 0.012 (≈ 0.0263 µM) | 25 (≈ 54.9 µM) | 0.025 (≈ 0.0549 µM) | 0.012 (≈ 0.0263 µM) | 25 (≈ 54.9 µM) | 1.6 (≈ 3.51 µM) | 0.05 (≈ 0.11 µM) | 0.4 (≈ 0.878 µM) | > 100 | 25 (≈ 54.9 µM) | 0.1 (≈ 0.22 µM) | 6.3 (≈ 13.8 µM) | 0.05 (≈ 0.11 µM) | 0.025 (≈ 0.0549 µM) | 0.05 (≈ 0.11 µM) | 0.1 (≈ 0.22 µM) | MIC ([10]; 20 h): > 100 µg/mL
3 | CO/N=C(\C(=O)N[C@@H]1C(=O)N2C(C(=O)[O-])=C(/C=C/C[N+](C)(C)Cc3scnc3C)CS[C@H]12)c1csc(N)n1 [Example 1, 7β-[(Z)-2-(2-aminothiazol-4-yl)-2-methoxyiminoacetamido]-3-[(E)-3-[(4-methylthiazol-5-yl)-methyldimethylammonio]-1-propen-1-yl]3-cephem-4-carboxylate] | 6.3 (≈ 10.9 µM) | 0.8 (≈ 1.38 µM) | 0.025 (≈ 0.0433 µM) | 0.4 (≈ 0.692 µM) | 0.006 (≈ 0.0104 µM) | 3.1 (≈ 5.37 µM) | < 0.006 | – | – | 0.4 (≈ 0.692 µM) | 0.05 (≈ 0.0865 µM) | 0.4 (≈ 0.692 µM) | 0.4 (≈ 0.692 µM) | 12.5 (≈ 21.6 µM) | 0.1 (≈ 0.173 µM) | 6.3 (≈ 10.9 µM) | 0.05 (≈ 0.0865 µM) | 0.025 (≈ 0.0433 µM) | 0.012 (≈ 0.0208 µM) | 0.05 (≈ 0.0865 µM) | MICs compared with Cefotaxime [15]: superior to that of Cefotaxime; LD50 at 168 h (Acute toxicity study; [16]): > 3000 mg/kg; LD50 at 168 h (Acute toxicity study; [17]): > 2000 mg/kg; LD50 at 168 h (Acute toxicity study; [18]): > 4000 mg/kg; LD50 at 168 h (Acute toxicity study; sc, subcutaneous routes, read-out: acute toxicity in subcutaneous routes): > 3000 mg/kg; MIC ([10]; Streptococcus faecium MD 8b, agar dilution, 37° C., 18 to 20 hours): 50 µg/mL (≈ 86.5 µM)
4 | CO/N=C(\C(=O)N[C@@H]1C(=O)N2C(C(=O)[O-])=C(/C=C/C[N+](C)(C)Cc3nc[nH]c3C)CS[C@H]12)c1csc(N)n1 [Example 2, 7β-[(Z)-2-(2-aminothiazol-4-yl)-2-methoxyiminoacetamido]-3-[(E)-3-[(5-methylimidazol-4-yl)-methyldimethylammonio]-1-propen-1-yl]3-cephem-4-carboxylate] | – | – | – | – | – | – | – | – | – | – | – | – | – | – | – | – | – | – | – | – | LD50 at 168 h (Acute toxicity study; [16]): > 2000 mg/kg; LD50 at 168 h (Acute toxicity study; [17]): > 2000 mg/kg; LD50 at 168 h (Acute toxicity study; [18]): > 3000 mg/kg
